Measurements reported in patent US12398120B2, “Substituted hydantoinamides as ADAMTS7 antagonists” (BAYER AKTIENGESELLSCHAFT, priority 2019, dated 2025).

biological target: ADAMTS4 (Homo sapiens (Human), UniProt O75173); assay: Selectivity assay for ADAMTS-7 modulators: ADAMTS4 (FRET substrate); assay type: biochemical; details: ADAMTS4 (R&D 4307-AD) 50 nM, substrate Dabcyl-EEVKAKVQPY-Glu(Edans)-NH2 1 μM, 120 min, 32° C.
How it was run: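 Human ADAMTS4 with compound in DMSO, or DMSO control; reaction started by adding FRET substrate in reaction buffer. Fluorescence increase measured at substrate-specific wavelengths. IC50 derived from % inhibition of enzyme activity versus compound concentration.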

ADAMTS4, sequence (O75173 213-685): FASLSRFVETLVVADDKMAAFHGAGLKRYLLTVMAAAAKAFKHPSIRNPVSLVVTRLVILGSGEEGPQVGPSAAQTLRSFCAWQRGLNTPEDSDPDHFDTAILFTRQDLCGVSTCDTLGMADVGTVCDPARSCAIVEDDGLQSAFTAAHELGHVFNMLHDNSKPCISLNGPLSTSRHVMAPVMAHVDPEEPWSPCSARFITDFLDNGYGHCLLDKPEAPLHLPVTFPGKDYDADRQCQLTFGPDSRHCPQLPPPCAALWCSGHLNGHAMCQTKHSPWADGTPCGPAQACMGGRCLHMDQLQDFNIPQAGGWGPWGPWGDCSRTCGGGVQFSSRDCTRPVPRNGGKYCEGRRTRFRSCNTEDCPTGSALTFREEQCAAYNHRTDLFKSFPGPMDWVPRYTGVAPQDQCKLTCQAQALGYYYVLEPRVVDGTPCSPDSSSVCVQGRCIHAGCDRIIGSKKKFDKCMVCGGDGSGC

SMILES | IC50 [µM]
Cn1ccnc1C1(CNC(=O)c2cc(Cl)ccc2-c2ccc(C(F)(F)F)cc2)NC(=O)NC1=O (single isomer, unassigned; ent-4) [Example 156, Ent-4-Chloro-N-{[4-(1-Methyl-1H-Imidazol-2-Yl)-2,5-Dioxoimidazolidin-4-Yl]Methyl}-4′-(Trifluoromethyl)[Biphenyl]-2-Carboxamide] | 25
Cn1ccnc1C1(CNC(=O)c2ccc(F)cc2-c2ccc(Cl)cc2)NC(=O)NC1=O (single isomer, unassigned; ent-4) [Example 157, Ent-4′-Chloro-5-Fluoro-N-{[4-(1-Methyl-1H-Imidazol-2-Yl)-2,5-Dioxoimidazolidin-4-Yl]Methyl}[Biphenyl]-2-Carboxamide] | 3
Cn1ccnc1C1(CNC(=O)c2cc(F)ccc2-c2ccc(Cl)cc2)NC(=O)NC1=O (single isomer, unassigned; ent-4) [Example 160, Ent-4′-Chloro-4-Fluoro-N-{[4-(1-Methyl-1H-Imidazol-2-Yl)-2,5-Dioxoimidazolidin-4-Yl]Methyl}[Biphenyl]-2-Carboxamide] | 0.83
Cn1ccnc1C1(CNC(=O)c2ccc(Cl)cc2-c2ccc(Cl)cc2)NC(=O)NC1=O (single isomer, unassigned; ent-4) [Example 162, Ent-4′,5-Dichloro-N-{[4-(1-Methyl-1H-Imidazol-2-Yl)-2,5-Dioxoimidazolidin-4-Yl]Methyl}[Biphenyl]-2-Carboxamide] | 0.463
Cc1scnc1C1(CNC(=O)c2cc(F)ccc2-c2ccc(C(F)(F)F)cc2)NC(=O)NC1=O (single isomer, unassigned; ent-4) [Example 166, Ent-4-Fluoro-N-{[4-(5-Methyl-1,3-Thiazol-4-Yl)-2,5-Dioxoimidazolidin-4-Yl]Methyl}-4′-(Trifluoromethyl)[Biphenyl]-2-Carboxamide] | 3.25
Cc1scnc1C1(CNC(=O)c2ccc(F)cc2-c2ccc(Cl)cc2)NC(=O)NC1=O (single isomer, unassigned; ent-4) [Example 170, Ent-4′-Chloro-5-Fluoro-N-{[4-(5-Methyl-1,3-Thiazol-4-Yl)-2,5-Dioxoimidazolidin-4-Yl]Methyl}[Biphenyl]-2-Carboxamide] | 4.9
Cc1scnc1C1(CNC(=O)c2ccccc2-c2ccc(Cl)cc2)NC(=O)NC1=O (single isomer, unassigned; ent-4) [Example 172, Ent-4′-Chloro-N-{[4-(5-Methyl-1,3-Thiazol-4-Yl)-2,5-Dioxoimidazolidin-4-Yl]Methyl}[Biphenyl]-2-Carboxamide] | 3.1
Cc1scnc1C1(CNC(=O)c2cc(F)ccc2-c2ccc(Cl)cc2)NC(=O)NC1=O (single isomer, unassigned; ent-4) [Example 174, Ent-4′-Chloro-4-Fluoro-N-{[4-(5-Methyl-1,3-Thiazol-4-Yl)-2,5-Dioxoimidazolidin-4-Yl]Methyl}[Biphenyl]-2-Carboxamide] | 2.6
Cc1scnc1C1(CNC(=O)c2ccccc2-c2ccc(S(C)(=O)=O)cc2)NC(=O)NC1=O (single isomer, unassigned; ent-4) [Example 175, Ent-4′-(Methylsulfonyl)-N-{[4-(5-Methyl-1,3-Thiazol-4-Yl)-2,5-Dioxoimidazolidin-4-Yl]Methyl}[Biphenyl]-2-Carboxamide] | 4.9

Further lines, results first:

IC50 [µM] | SMILES
5.37 | Cn1nccc1C1(CNC(=O)c2cc(F)ccc2-c2ccc(C(F)(F)F)cc2)NC(=O)NC1=O (single isomer, unassigned; ent-4) [Example 178, Ent-4-Fluoro-N-{[4-(1-Methyl-1H-Pyrazol-5-Yl)-2,5-Dioxoimidazolidin-4-Yl]Methyl}-4′-(Trifluoromethyl)[Biphenyl]-2-Carboxamide]
17.8 | Cn1nccc1C1(CNC(=O)c2ccc(F)cc2-c2ccc(Cl)cc2)NC(=O)NC1=O (single isomer, unassigned; ent-4) [Example 180, Ent-4′-Chloro-5-Fluoro-N-{[4-(1-Methyl-1H-Pyrazol-5-Yl)-2,5-Dioxoimidazolidin-4-Yl]Methyl}[Biphenyl]-2-Carboxamide]
4.03 | Cn1nccc1C1(CNC(=O)c2ccccc2-c2ccc(Cl)cc2)NC(=O)NC1=O (single isomer, unassigned; ent-4) [Example 182, Ent-4′-Chloro-N-{[4-(1-Methyl-1H-Pyrazol-5-Yl)-2,5-Dioxoimidazolidin-4-Yl]Methyl}[Biphenyl]-2-Carboxamide]
3.55 | Cn1nccc1C1(CNC(=O)c2cc(F)ccc2-c2ccc(Cl)cc2)NC(=O)NC1=O (single isomer, unassigned; ent-4) [Example 187, Ent-4′-Chloro-4-Fluoro-N-{[4-(1-Methyl-1H-Pyrazol-5-Yl)-2,5-Dioxoimidazolidin-4-Yl]Methyl}[Biphenyl]-2-Carboxamide]
7.13 | Cn1nccc1C1(CNC(=O)c2cc(F)c(F)cc2-c2ccc(C(F)(F)F)cc2)NC(=O)NC1=O (single isomer, unassigned; ent-4) [Example 192, Ent-4,5-Difluoro-N-{[4-(1-Methyl-1H-Pyrazol-5-Yl)-2,5-Dioxoimidazolidin-4-Yl]Methyl}-4′-(Trifluoromethyl)[Biphenyl]-2-Carboxamide]
1.57 | Cn1nccc1C1(CNC(=O)c2ccc(Cl)cc2-c2ccc(Cl)cc2)NC(=O)NC1=O (single isomer, unassigned; ent-4) [Example 193, Ent-4′,5-Dichloro-N-{[4-(1-Methyl-1H-Pyrazol-5-Yl)-2,5-Dioxoimidazolidin-4-Yl]Methyl}[Biphenyl]-2-Carboxamide]
13 | CC(C)C1(CNC(=O)c2cc(F)ccc2-c2ccc(C(F)(F)F)cc2)NC(=O)NC1=O (single isomer, unassigned; ent-4) [Example 212, Ent-4-Fluoro-N-[(4-Isopropyl-2,5-Dioxoimidazolidin-4-Yl)Methyl]-4′-(Trifluoromethyl)[Biphenyl]-2-Carboxamide]
30 | CC(C)C1(CNC(=O)c2cc(F)c(F)cc2-c2ccc(C(F)(F)F)cc2)NC(=O)NC1=O (single isomer, unassigned; ent-4) [Example 213, Ent-4,5-Difluoro-N-[(4-Isopropyl-2,5-Dioxoimidazolidin-4-Yl)Methyl]-4′-(Trifluoromethyl)[Biphenyl]-2-Carboxamide]
> 50 | O=C1NC(=O)C(CNC(=O)c2ccccc2-c2ccc(Cl)cc2)(C2CC(F)(F)C2)N1 (single isomer, unassigned; ent-4) [Example 247, Ent-4′-Chloro-N-{[4-(3,3-Difluorocyclobutyl)-2,5-Dioxoimidazolidin-4-Yl]Methyl}[Biphenyl]-2-Carboxamide]
11 | O=C1NC(=O)C(CNC(=O)c2ccccc2-c2ccc(Cl)cc2)(C2(F)CC2)N1 (single isomer, unassigned; ent-4) [Example 251, Ent-4′-Chloro-N-{[4-(1-Fluorocyclopropyl)-2,5-Dioxoimidazolidin-4-Yl]Methyl}[Biphenyl]-2-Carboxamide]
5.8 | O=C1NC(=O)C(CNC(=O)c2ccccc2-c2ccc(Cl)cc2)(c2ccnn2C(F)F)N1 (single isomer, unassigned; ent-4) [Example 259, Ent-4′-Chloro-N-({4-[1-(Difluoromethyl)-1H-Pyrazol-5-Yl]-2,5-Dioxoimidazolidin-4-Yl}Methyl)[Biphenyl]-2-Carboxamide]
